Source: PMC9657391, “A Food-Grade Method for Enhancing the Levels of Low Molecular Weight Proanthocyanidins with Potentially High Intestinal Bioavailability” (International Journal of Molecular Sciences, 2022)

Molecular target: T1, COX-2 (cyclooxygenase 2) (Homo sapiens, UniProt P35354)
T1 construct: gene PTGS2
Assay: biochemical

T1 sequence (P35354 18-604): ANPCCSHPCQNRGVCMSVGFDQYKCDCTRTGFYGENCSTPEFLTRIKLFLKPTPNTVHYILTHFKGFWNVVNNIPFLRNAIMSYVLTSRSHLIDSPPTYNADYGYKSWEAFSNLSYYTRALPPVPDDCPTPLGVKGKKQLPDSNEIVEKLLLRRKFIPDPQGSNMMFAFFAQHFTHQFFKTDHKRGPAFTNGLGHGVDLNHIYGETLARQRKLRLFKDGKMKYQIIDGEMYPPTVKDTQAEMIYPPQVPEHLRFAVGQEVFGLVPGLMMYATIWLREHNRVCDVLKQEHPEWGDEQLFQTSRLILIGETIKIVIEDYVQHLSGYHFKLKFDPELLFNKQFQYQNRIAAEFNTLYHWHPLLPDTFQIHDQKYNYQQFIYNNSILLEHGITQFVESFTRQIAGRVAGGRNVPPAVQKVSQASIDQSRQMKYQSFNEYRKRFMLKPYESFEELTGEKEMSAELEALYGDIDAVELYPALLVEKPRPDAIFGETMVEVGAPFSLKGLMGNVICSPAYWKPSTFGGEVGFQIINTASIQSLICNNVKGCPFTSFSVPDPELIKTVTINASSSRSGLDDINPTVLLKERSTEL

## COc1ccc2cc([C@H](C)C(=O)O)ccc2c1 [Naproxen]
  IC50: 13 µM
